The results in this text go back to US20090203708A1, “NOVEL SUBSTITUTED-1-H-QUINAZOLINE-2,4-DIONE DERIVATIVES, PREPARATION METHOD THEREOF AND PHARMACEUTICAL COMPOSITION CONTAINING THE SAME” (Korea Research Institute of Chemical Technology, priority 2006, published 2009).

Series [1] has as its target human serotonin 5-HT6 receptor (Homo sapiens, UniProt P50406). Description: [3H]LSD binding assay for cloned 5-HT6 receptors.
Series [2] addresses T1, HeLa cells transfected with human 5-HT6 receptor (Homo sapiens, UniProt P50406).
T1 construct: expressed in transfected cells; host or cells: HeLa
Briefly: Serotonin-stimulated cAMP accumulation in HeLa cells (EIA). The format is cell-based. The conditions noted are these: for effect on serotonin-stimulated cAMP accumulation (in words): HeLa cells, FIG. 1. (In general: cAMP levels reflect the balance of adenylyl cyclase and phosphodiesterase activity.)

For series [3], the target named is 5-HT7 (human recombinant receptor, CHO-K1) (Homo sapiens, UniProt P34969). Briefly: Radioligand binding assay, 5-HT7.
The target of series [4] is 5-HT2a (human recombinant receptor, CHO-K1) (Homo sapiens, UniProt P28223). Description: Radioligand binding assay, 5-HT2a.
In another series the target is D1 receptor (Homo sapiens, UniProt P21728). Description: Radioligand binding assay, dopamine D1.
Another series deals with T2, D4 (hD4.2 receptor) (Homo sapiens, UniProt P21917, DEL265-296).
T2 construct: purchased BioSignal Packard Inc., Montreal, Canada
T2 sequence (P21917 with tags, fused parts or gaps DEL265-296): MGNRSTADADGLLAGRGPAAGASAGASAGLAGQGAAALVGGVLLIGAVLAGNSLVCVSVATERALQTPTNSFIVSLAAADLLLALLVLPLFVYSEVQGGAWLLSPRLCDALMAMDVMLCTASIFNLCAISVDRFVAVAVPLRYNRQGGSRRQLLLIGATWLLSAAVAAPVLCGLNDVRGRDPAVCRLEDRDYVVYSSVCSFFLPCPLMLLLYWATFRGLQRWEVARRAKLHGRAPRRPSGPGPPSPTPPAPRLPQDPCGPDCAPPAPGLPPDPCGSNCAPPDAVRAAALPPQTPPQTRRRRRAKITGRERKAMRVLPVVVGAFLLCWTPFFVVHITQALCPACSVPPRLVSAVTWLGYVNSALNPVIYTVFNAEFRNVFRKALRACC
Description: Radioligand binding assay, dopamine D4. The note with it: [3H] YM-09151-2 0.06 nM; read-out: Binding affinity IC50 D4. The method, then:
(§1) Radioligand binding assays for dopamine receptor family (D1, D2 and D3) were performed according to the protocols provided by the manufacturer of receptor membranes (BioSignal Packard Inc., Montreal, Canada). The radioligands used were [^3H] spiperone (for hD2L and hD3 receptors, 1 nM) and [^3H] YM-09151-2 (hD4.2 receptor, 0.06 nM). Briefly, the buffer used in the D1, D2 and D3 receptor binding assay was 50 mM Tris-HCl (pH 7.4), containing 10 mM MgCl2 and 1 mM EDTA, or 50 mM Tris-HCl (pH 7.4), containing 5 mM MgCl2, 5 mM EDTA, 5 mM KCl, 1.5 mM CaCl2 and 120 mM NaCl. For [^3H] YM-09151-2 receptor binding assays, 50 mM Tris-HCl (pH 7.4) containing 5 mM MgCl2, 5 mM EDTA, 5 mM KCl and 1.5 mM CaCl2, was used as a buffer. Nonspecific binding was determined with haloperidol (10 μM) for D2 and D3 and clozapine (10 μM) for D4 receptors.
(§2) Competition binding studies were carried out with 7-8 concentrations of the test compound run in duplicate tubes, and isotherms from three assays were calculated by computerized nonlinear regression analysis (GraphPad Prism Program, San Diego, […]) to yield median inhibitory concentration (IC50) values.

The target in series [5] is T3, 5-HT2c (human recombinant receptor, CHO-K1) (Homo sapiens, UniProt P28335).
T3 sequence (P28335 33-458): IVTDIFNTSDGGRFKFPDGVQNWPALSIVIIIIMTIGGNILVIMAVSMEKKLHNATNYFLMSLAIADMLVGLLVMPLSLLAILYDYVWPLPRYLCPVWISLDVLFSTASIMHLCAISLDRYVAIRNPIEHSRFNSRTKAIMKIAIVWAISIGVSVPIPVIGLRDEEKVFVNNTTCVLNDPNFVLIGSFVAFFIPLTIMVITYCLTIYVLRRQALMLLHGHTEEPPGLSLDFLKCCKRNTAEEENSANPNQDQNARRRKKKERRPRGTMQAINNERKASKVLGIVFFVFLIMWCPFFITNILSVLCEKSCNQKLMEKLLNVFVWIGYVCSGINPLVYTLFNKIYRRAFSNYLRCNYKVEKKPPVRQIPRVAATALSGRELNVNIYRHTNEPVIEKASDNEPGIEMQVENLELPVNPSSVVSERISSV
Briefly: Radioligand binding assay, 5-HT2c.

The target of a further series is D3 (hD3 receptor) (Homo sapiens, UniProt P35462). Briefly: Radioligand binding assay, dopamine D3.
For a further series, the target named is T4, D2 (hD2L receptor) (Homo sapiens, UniProt P14416).
T4 construct: purchased BioSignal Packard Inc., Montreal, Canada
Briefly: Radioligand binding assay, dopamine D2. The note with it: [3H] spiperone 1 nM; read-out: Binding affinity IC50 D2. The method, then:
as §1, §2

Series [6] concerns the target T5, 5-HT1a (human recombinant receptor, CHO-K1) (Homo sapiens, UniProt P08908).
T5 sequence (P08908 1-422): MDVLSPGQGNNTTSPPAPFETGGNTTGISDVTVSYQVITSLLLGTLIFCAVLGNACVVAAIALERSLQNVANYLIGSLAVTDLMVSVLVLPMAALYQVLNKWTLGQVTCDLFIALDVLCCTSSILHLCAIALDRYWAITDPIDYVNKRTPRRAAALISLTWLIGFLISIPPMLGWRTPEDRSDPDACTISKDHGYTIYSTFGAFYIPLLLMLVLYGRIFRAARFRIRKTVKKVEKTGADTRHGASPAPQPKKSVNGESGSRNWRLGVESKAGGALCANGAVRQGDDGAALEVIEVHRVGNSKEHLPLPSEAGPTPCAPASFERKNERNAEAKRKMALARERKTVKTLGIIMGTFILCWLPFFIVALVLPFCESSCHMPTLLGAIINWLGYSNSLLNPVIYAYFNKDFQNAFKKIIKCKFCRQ
Briefly: Radioligand binding assay, 5-HT1a.

T4 sequence (P14416 whole entry): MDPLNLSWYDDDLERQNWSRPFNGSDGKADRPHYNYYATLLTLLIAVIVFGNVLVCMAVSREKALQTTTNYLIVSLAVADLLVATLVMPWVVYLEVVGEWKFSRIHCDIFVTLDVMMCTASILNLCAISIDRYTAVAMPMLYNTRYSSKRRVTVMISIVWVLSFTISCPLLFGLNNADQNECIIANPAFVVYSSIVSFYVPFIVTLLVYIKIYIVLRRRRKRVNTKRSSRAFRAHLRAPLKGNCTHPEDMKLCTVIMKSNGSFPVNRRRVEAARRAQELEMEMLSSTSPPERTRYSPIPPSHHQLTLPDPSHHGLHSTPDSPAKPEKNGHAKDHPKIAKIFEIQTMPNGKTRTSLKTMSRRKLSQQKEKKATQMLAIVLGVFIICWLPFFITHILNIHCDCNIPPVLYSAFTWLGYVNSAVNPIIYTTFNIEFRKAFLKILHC
T1 sequence (P50406 whole entry): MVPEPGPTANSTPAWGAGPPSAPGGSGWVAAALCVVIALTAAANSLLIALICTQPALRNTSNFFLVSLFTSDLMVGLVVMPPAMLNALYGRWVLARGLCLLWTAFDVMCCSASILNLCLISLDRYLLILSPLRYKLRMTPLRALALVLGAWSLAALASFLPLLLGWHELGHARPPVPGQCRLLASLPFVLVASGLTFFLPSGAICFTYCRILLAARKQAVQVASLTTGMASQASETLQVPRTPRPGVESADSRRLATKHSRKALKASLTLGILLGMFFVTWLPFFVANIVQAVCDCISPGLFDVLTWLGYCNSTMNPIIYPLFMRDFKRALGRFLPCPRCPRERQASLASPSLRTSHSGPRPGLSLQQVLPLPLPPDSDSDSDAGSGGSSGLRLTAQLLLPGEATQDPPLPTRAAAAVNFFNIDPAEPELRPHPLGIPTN
Sequence of human serotonin 5-HT6 receptor (P50406 whole entry): as above
Sequence of 5-HT2a (human recombinant receptor, CHO-K1) (P28223 whole entry): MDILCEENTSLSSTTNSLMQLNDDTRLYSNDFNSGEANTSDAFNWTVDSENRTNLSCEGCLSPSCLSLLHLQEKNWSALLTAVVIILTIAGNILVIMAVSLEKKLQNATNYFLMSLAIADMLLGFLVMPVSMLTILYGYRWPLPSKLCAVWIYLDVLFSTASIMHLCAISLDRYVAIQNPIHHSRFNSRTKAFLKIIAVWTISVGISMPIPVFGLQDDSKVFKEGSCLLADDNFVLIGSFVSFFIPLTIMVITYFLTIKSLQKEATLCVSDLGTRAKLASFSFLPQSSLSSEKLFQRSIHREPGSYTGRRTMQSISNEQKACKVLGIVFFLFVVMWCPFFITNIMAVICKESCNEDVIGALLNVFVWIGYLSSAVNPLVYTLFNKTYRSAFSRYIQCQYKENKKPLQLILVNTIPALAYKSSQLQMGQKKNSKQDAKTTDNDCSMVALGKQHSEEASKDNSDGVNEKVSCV
Sequence of 5-HT7 (human recombinant receptor, CHO-K1) (P34969 whole entry): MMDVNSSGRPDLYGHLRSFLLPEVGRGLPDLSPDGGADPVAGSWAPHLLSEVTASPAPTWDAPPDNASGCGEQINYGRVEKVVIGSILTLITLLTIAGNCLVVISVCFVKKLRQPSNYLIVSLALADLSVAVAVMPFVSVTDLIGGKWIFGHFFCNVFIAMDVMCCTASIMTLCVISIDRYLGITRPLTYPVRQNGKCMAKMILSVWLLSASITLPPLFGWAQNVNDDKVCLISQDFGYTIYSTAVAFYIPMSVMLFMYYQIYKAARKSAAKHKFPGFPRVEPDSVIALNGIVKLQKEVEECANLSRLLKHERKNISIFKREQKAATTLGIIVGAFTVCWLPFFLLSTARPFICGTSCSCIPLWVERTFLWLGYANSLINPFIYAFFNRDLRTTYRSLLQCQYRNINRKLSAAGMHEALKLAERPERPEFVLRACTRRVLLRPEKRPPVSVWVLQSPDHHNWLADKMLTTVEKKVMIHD
Sequence of D3 (hD3 receptor) (P35462 whole entry): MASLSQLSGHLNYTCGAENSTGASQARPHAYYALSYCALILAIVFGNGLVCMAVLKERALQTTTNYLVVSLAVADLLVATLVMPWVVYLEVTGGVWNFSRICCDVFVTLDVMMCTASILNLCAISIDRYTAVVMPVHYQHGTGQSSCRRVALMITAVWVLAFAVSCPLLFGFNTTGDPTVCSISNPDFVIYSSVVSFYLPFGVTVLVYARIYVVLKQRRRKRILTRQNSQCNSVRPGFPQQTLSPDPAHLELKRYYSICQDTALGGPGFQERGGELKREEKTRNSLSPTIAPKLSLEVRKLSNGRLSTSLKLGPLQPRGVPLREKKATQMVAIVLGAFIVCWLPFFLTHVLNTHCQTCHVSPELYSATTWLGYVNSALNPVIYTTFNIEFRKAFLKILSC
Sequence of D1 receptor (P21728 whole entry): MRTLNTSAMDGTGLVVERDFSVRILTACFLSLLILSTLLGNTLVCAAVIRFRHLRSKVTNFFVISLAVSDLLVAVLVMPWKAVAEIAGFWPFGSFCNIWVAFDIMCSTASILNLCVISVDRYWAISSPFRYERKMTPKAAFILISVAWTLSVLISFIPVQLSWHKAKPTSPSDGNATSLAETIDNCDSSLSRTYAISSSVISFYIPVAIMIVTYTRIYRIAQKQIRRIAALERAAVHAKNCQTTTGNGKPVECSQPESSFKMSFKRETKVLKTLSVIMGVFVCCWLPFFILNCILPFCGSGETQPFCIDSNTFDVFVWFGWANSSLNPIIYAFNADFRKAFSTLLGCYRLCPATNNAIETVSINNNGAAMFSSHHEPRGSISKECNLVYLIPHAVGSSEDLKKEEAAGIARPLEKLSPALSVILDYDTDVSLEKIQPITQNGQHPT

For orientation: melting point means the temperature of the solid-liquid transition. As a reminder, the IC50 is the concentration needed to halve the response being measured. As for `CN1CCN(c2cc(Cl)cc3c2c(=O)n(C)c(=O)n3Cc2ccccc2)CC1` [Example 1, 1-benzyl-7-chloro-3-methyl-5-(4-methyl-piperazin-1-yl)-1H-quinazoline-2,4-dione], the melting point was in the range of 173 to 175 °C. This compound yielded an IC50 in series [1] of 3 nM. Further, in series [2], the “antagonist activity compared with methiothepin” value is listed as “weaker antagonist activity than methiothepin” and the “effect on serotonin-stimulated cAMP accumulation (in words)” value is given as “identified as 5-HT6 receptor antagonists”.
As for `CN1CCN(c2cc(Cl)cc3c2c(=O)n(Cc2ccccc2)c(=O)n3Cc2ccccc2)CC1` [Example 10, 1,3-dibenzyl-7-chloro-5-(4-methyl-piperazin-1yl)-1H-quinazoline-2,4-dione], the melting point was in the range of 113 to 116 °C. Also, the IC50 in series [3] amounted to 6780 nM. The IC50 in series [4] was found to be 1690 nM. The compound also showed an IC50 on D1 receptor of 5560 nM. The IC50 at D4 (hD4.2 receptor) is > 10000 nM. Moreover, the IC50 in series [5] came to 4760 nM. This compound also displayed an IC50 at D3 (hD3 receptor) of 1550 nM. The IC50 in [1] came out at 2.4 nM. On D2 (hD2L receptor), the IC50 worked out at 4350 nM. Moreover, in series [6], the IC50 was found to be 4590 nM.
For `CN1CCN(c2cc(Cl)cc3c2c(=O)n(Cc2ccc(F)cc2)c(=O)n3Cc2ccccc2)CC1` [Example 13, 1-benzyl-7-chloro-3-(4-fluoro-benzyl)-5-(4-methyl-piperazin-1-yl)-1H-quinazoline-2,4-dione], the melting point was in the range of 110 to 114 °C. The IC50 in series [3] turned out to be 8640 nM. Besides, the IC50 in [4] came to 1390 nM. Moreover, the IC50 on D4 (hD4.2 receptor) was > 10000 nM. The 50% inhibitory concentration (IC50) in series [5] is 1800 nM. In addition, at D3 (hD3 receptor), the IC50 came out at 2380 nM. Also, the IC50 in series [1] turned out to be 1.5 nM. Moreover, in series [2], the “antagonist activity compared with methiothepin” value was “weaker antagonist activity than methiothepin” and the “effect on serotonin-stimulated cAMP accumulation (in words)” value is listed as “identified as 5-HT6 receptor antagonists”. The IC50 at D2 (hD2L receptor) was > 10000 nM. The IC50 in series [6] is 2770 nM.
For the compound `C[C@@H](c1ccccc1)n1c(=O)c2c(N3CCN(C)CC3)cc(Cl)cc2n(Cc2ccccc2)c1=O` [Example 41, 1-benzyl-7-chloro-5-(4-methyl-piperazin-1yl)-3-[(S)-1-phenyl-ethyl]-1H-quinazoline-2,4-dione], the IC50 in series [3] was 2740 nM; in series [4] it was 160 nM; at D1 receptor, > 10000 nM; at D4 (hD4.2 receptor), > 10000 nM; in series [5], 865 nM; on D3 (hD3 receptor) it was 362 nM. Moreover, the IC50 in series [1] is 5 nM; on D2 (hD2L receptor), 744 nM; in series [6] it was > 10000 nM.
For `CN1CCN(c2cc(Cl)cc3c2c(=O)n(CCc2ccccc2)c(=O)n3Cc2ccccc2)CC1` [Example 42, 1-benzyl-7-chloro-5-(4-methyl-piperazin-1-yl)-3-phenethyl-1H-quinazoline-2,4-dione], the melting point was in the range of 136 to 138 °C. Moreover, in [3], the IC50 worked out at 7030 nM. Further, the IC50 in series [4] was 244 nM. Also, the IC50 at D1 receptor was 3450 nM. The IC50 at D4 (hD4.2 receptor) was > 10000 nM. Further, in [5], the IC50 is 430 nM. The same compound came in with an IC50 on D3 (hD3 receptor) of 638 nM. In addition, the half-inhibitory concentration (IC50) in series [1] was 0.5 nM. Moreover, at D2 (hD2L receptor), the IC50 was found to be 2500 nM. Besides, the IC50 in series [6] came to 1300 nM.
As to `CN1CCN(c2cc(Cl)cc3c2c(=O)n(CCCc2ccccc2)c(=O)n3Cc2ccccc2)CC1` [Example 43, 1-benzyl-7-chloro-5-(4-methyl-piperazin-1-yl)-3-(3-phenyl-propyl)-1H-quinazoline-2,4-dione], the melting point is 55 to 63 °C. Moreover, the IC50 in series [3] is 7760 nM. Besides, in series [4], the IC50 was 892 nM. The compound also returned an IC50 on D1 receptor of 961 nM. In addition, the IC50 at D4 (hD4.2 receptor) is > 10000 nM. Also, in [5], the IC50 was 1420 nM. This compound registered an IC50 at D3 (hD3 receptor) of 1750 nM. For the same compound, the IC50 in series [1] is 2.7 nM. Further, the IC50 on D2 (hD2L receptor) amounted to 5670 nM. The IC50 in series [6] was determined as 2640 nM.
`O=c1c2c(N3CCNCC3)cc(Cl)cc2n(Cc2ccccc2)c(=O)n1Cc1ccccc1F` [Example 58, 1-benzyl-7-chloro-3-(2-fluoro-benzyl)-5-piperazin-1-yl-quinazoline-2,4-dione] gave a melting point of 98 to 109 °C. Besides, in series [3], the IC50 was > 10000 nM. Moreover, the IC50 in series [4] is 220 nM. At D4 (hD4.2 receptor), the IC50 is > 10000 nM. Also, the IC50 in [5] is 540 nM. The IC50 on D3 (hD3 receptor) amounted to 3130 nM. The compound also showed an IC50 in series [1] of 0.6 nM. Besides, the IC50 at D2 (hD2L receptor) was > 10000 nM. Besides, in [6], the IC50 worked out at 2850 nM.
`O=c1c2c(N3CCNCC3)cc(Cl)cc2n(Cc2ccccc2)c(=O)n1Cc1ccccc1Cl` [Example 59, 1-benzyl-7-chloro-3-(2-chloro-benzyl)-5-piperazin-1-yl-1H-quinazoline-2,4-dione]: the melting point is 120 to 125 °C. Also, the IC50 in [3] amounted to 7320 nM. Further, the IC50 in series [4] is 132 nM. Further, on D4 (hD4.2 receptor), the IC50 is > 10000 nM. Besides, in [5], the IC50 was found to be 198 nM. This compound came in with an IC50 at D3 (hD3 receptor) of 381 nM. In series [1], this compound yielded an IC50 of 1.7 nM. Moreover, the IC50 at D2 (hD2L receptor) was > 10000 nM. For the same compound, in series [6], the IC50 came to 2160 nM.
`C[C@@H](c1ccccc1)n1c(=O)c2c(N3CCNCC3)cc(Cl)cc2n(Cc2ccccc2)c1=O` [Example 69, 1-benzyl-7-chloro-3-[(S)-1-phenyl-ethyl]-5-piperazin-1yl-1H-quinazoline-2,4-dione]: the IC50 in [3] is 7890 nM; in series [4], 293 nM; at D1 receptor, 8620 nM; at D4 (hD4.2 receptor), > 10000 nM; in series [5], 429 nM; at D3 (hD3 receptor), 1800 nM. The figures for the IC50 (in series [1]; on D2 (hD2L receptor); in series [6]) were 2.7 nM, > 10000 nM and 5870 nM, respectively.
Consider `O=c1c2c(N3CCNCC3)cc(Cl)cc2n(Cc2ccccc2)c(=O)n1CCc1ccccc1` [Example 70, 1-benzyl-7-chloro-3-phenethyl-5-piperazin-1-yl-1H-quinazoline-2,4-dione], for which the IC50 in series [3] is 7710 nM; in series [4] it was 401 nM; on D1 receptor, 5710 nM; on D4 (hD4.2 receptor), > 10000 nM; in series [5] it was 752 nM; at D3 (hD3 receptor), 2840 nM. The IC50 in series [1] worked out at 0.6 nM; at D2 (hD2L receptor) it was 7440 nM; in series [6], 2910 nM.
